Experimental data reported in patent publication US20180243212A1, “TRANSDERMAL FORMULATIONS FOR DELIVERY OF DOXYCYCLINE, AND THEIR USE IN THE TREATMENT OF DOXYCYCLINE-RESPONSIVE DISEASES AND CONDITIONS” (DELIVRA, INC., priority 2015, published 2018).

What was measured:
[1] = Quantification of doxycycline in formulations 1-3 by LC-MS/MS (stability); format: physicochemical; conditions: over the time period studied (three months) under the storage conditions 5-25° C.
Protocol: 2.0-5.0 mg of doxycycline hyclate, usp (Medisca, CAS 24390-14-5, code 0434-04, lot 59177/D) was weighed into a scintillation vial and the mass was recorded. The recorded mass was then used to calculate the volume of solvent needed to generate a final concentration of 1 mg/mL and that amount of 60:28:12 H2O:CH3CN:MeOH was accurately added to the vial using a pipette. The solution was vortexed for 30 seconds or until the doxycycline hyclate was completely dissolved.
A 50 μg/mL solution of doxycycline hyclate was prepared by adding 50 μL of 1 mg/mL stock solution to 950 μL of methanol/water (50:50) and the resulting solution was vortexed for 10 seconds. […]
5-10 mgs of exemplary formulation 3 to be analyzed was weighed into a scintillation vial in duplicate. The mass was recorded and used to calculate the amount of methanol/water (50:50) to add to make up to 1 mg/mL and this was added. […]
Doxycycline was extracted in methanol:water from cream formulations by sonication, diluted and then quantified using liquid chromatography-triple quadruple mass spectrometry (LC-MS/MS). A calibration curve calculated by the peak area ratio of concentration of an analytical standard of doxycycline to an internal standard was used to calculate the concentrations of unknowns and establish linearity and LLOQ. […]

[2] = compounded from commercial tablets in the vehicles; Papich et al. (2013); cited from earlier work

## Doxycycline
[1]
  degradation of the doxycycline: < 10%
[2]
  time over which the concentration of DOX can be assured: ≤ 7 days
